Reference: PubChem BioAssay AID328 (DTP/NCI, 2004)
Several values for one entry are separate records, joined by “and”; a condition that tells them apart may be missing. Equal entries are not always repeated. Inconclusive results and toxic doses are left out.

Test system: BDF1 mice, P388 leukemia ip, median survival T/C
Assay: NCI In Vivo Anticancer Drug Screen. Data for tumor model P388 Leukemia (intraperitoneal) in B6D2F1 (BDF1) mice
Conditions: endpoint: median survival time, higher = longer survival
Outline: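 Read-out is survival of treated animals expressed relative to the vehicle group, as a T/C ratio.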

[1] = dose: 100.0 mg/kg/injection, schedule: Q04DX003 (ip), vehicle: Klucel (hydroxypropylcellulose) (HPC)
[2] = dose: 200.0 mg/kg/injection, schedule: Q04DX003 (ip), vehicle: Klucel (hydroxypropylcellulose) (HPC)
[3] = dose: 400.0 mg/kg/injection, schedule: Q04DX003 (ip), vehicle: Klucel (hydroxypropylcellulose) (HPC)
[4] = dose: 100.0 mg/kg/injection, schedule: Q01DX009 (ip), vehicle: Klucel (hydroxypropylcellulose) (HPC)
[5] = dose: 200.0 mg/kg/injection, schedule: Q01DX009 (ip), vehicle: Klucel (hydroxypropylcellulose) (HPC)
[6] = dose: 400.0 mg/kg/injection, schedule: Q01DX009 (ip), vehicle: Klucel (hydroxypropylcellulose) (HPC)
[7] = dose: 100.0 mg/kg/injection, schedule: Q01DX009 (ip), vehicle: saline with Tween-80
[8] = dose: 100.0 mg/kg/injection, schedule: Q04DX003 (ip), vehicle: saline with Tween-80
[9] = dose: 200.0 mg/kg/injection, schedule: Q01DX009 (ip), vehicle: saline with Tween-80
[10] = dose: 200.0 mg/kg/injection, schedule: Q04DX003 (ip), vehicle: saline with Tween-80
[11] = dose: 400.0 mg/kg/injection, schedule: Q04DX003 (ip), vehicle: saline with Tween-80
[12] = dose: 50.0 mg/kg/injection, schedule: Q01DX009 (ip), vehicle: saline
[13] = dose: 50.0 mg/kg/injection, schedule: Q04DX003 (ip), vehicle: saline with Tween-80

Structure (SMILES): COC(=O)c1cc(Cl)ccc1OCC(=O)Nc1ccc([N+](=O)[O-])cc1
- T/C [1]: 95 % of control and 100 % of control
- T/C [2]: 104 % of control
- T/C [3]: 87 % of control and 104 % of control

Structure (SMILES): CC1CC2C(CC1=O)C(C)(C)CCC2(C)C (configuration not stated)
- T/C [4]: 109 % of control
- T/C [5]: 104 % of control
- T/C (dose: 264.0 mg/kg/injection, schedule: Q04DX003 (ip), vehicle: Klucel (hydroxypropylcellulose) (HPC)): 104 % of control and 109 % of control
- T/C [6]: 86 % of control
- T/C [3]: 104 % of control

Structure (SMILES): Nc1ccccc1CCc1ccccc1N
- T/C [7]: 104 % of control
- T/C [8]: 95 % of control
- T/C [9]: 100 % of control
- T/C [10]: 95 % of control
- T/C (dose: 400.0 mg/kg/injection, schedule: Q01DX009 (ip), vehicle: saline with Tween-80): 100 % of control
- T/C [11]: 108 % of control

Structure (SMILES): C#CC[N+]12CN3CN(CN(C3)C1)C2
- T/C [12]: 123 % of control

Structure (SMILES): O=C1c2ccccc2C(=O)N1Cc1ccc([N+](=O)[O-])cc1
- T/C (dose: 12.5 mg/kg/injection, schedule: Q01DX009 (ip), vehicle: saline with Tween-80): 97 % of control
- T/C (dose: 25.0 mg/kg/injection, schedule: Q01DX009 (ip), vehicle: saline with Tween-80): 96 % of control
- T/C (dose: 50.0 mg/kg/injection, schedule: Q01DX009 (ip), vehicle: saline with Tween-80): 97 % of control
- T/C [7]: 92 % of control

Structure (SMILES): CC1CC2=CC(=O)C=CC2(C)C2CCC3(C)C(O)CCC3C12 (configuration not stated)
- T/C (dose: 1.56 mg/kg/injection, schedule: Q01DX009 (ip), vehicle: Klucel (hydroxypropylcellulose) (HPC)): 86 % of control
- T/C (dose: 3.12 mg/kg/injection, schedule: Q01DX009 (ip), vehicle: Klucel (hydroxypropylcellulose) (HPC)): 107 % of control
- T/C (dose: 6.25 mg/kg/injection, schedule: Q01DX009 (ip), vehicle: Klucel (hydroxypropylcellulose) (HPC)): 99 % of control
- T/C (dose: 25.0 mg/kg/injection, schedule: Q01DX009 (ip), vehicle: Klucel (hydroxypropylcellulose) (HPC)): 95 % of control
- T/C (dose: 50.0 mg/kg/injection, schedule: Q01DX009 (ip), vehicle: Klucel (hydroxypropylcellulose) (HPC)): 91 % of control
- T/C [12]: 90 % of control
- T/C [4]: 95 % of control and 97 % of control
- T/C [1]: 91 % of control
- T/C [5]: 96 % of control and 97 % of control
- T/C [2]: 95 % of control
- T/C [6]: 86 % of control and 88 % of control
- T/C [3]: 87 % of control

Structure (SMILES): S=c1c(S)c(S)c1=S
- T/C (dose: 100.0 mg/kg/injection, schedule: Q04DX002 (ip), vehicle: saline): 100 % of control
- T/C (dose: 200.0 mg/kg/injection, schedule: Q04DX002 (ip), vehicle: saline): 100 % of control
- T/C (dose: 400.0 mg/kg/injection, schedule: Q04DX002 (ip), vehicle: saline): 100 % of control

Structure (SMILES): CCN1/C(=C/C=C/C=C\C=C\c2sc3ccc4ccccc4c3[n+]2CC)Sc2ccc3ccccc3c21
- T/C (dose: 1.56 mg/kg/injection, schedule: Q04DX002 (ip), vehicle: saline with Tween-80): 173 % of control
- T/C (dose: 3.12 mg/kg/injection, schedule: Q04DX002 (ip), vehicle: saline with Tween-80): 162 % of control

Structure (SMILES): C[C@@H]1C[C@@H]([C@H](O)CC2CC(=O)NC(=O)C2)C(=O)[C@@H](C)C1
- T/C (dose: 5.0 mg/kg/injection, schedule: Q01DX010 (ip), vehicle: saline): 100 % of control and 104 % of control
- T/C (dose: 10.0 mg/kg/injection, schedule: Q01DX010 (ip), vehicle: saline): 90 % of control and 114 % of control
- T/C (dose: 15.0 mg/kg/injection, schedule: Q01DX009 (ip), vehicle: Klucel (hydroxypropylcellulose) (HPC)): 100 % of control
- T/C (dose: 20.0 mg/kg/injection, schedule: Q01DX010 (ip), vehicle: saline): 100 % of control (2×) and 119 % of control
- T/C (dose: 30.0 mg/kg/injection, schedule: Q01DX009 (ip), vehicle: Klucel (hydroxypropylcellulose) (HPC)): 90 % of control
- T/C (dose: 39.9 mg/kg/injection, schedule: Q04DX003 (ip), vehicle: Klucel (hydroxypropylcellulose) (HPC)): 114 % of control
- T/C (dose: 39.9 mg/kg/injection, schedule: Q04DX003 (sc), vehicle: Klucel (hydroxypropylcellulose) (HPC)): 110 % of control
- T/C (dose: 40.0 mg/kg/injection, schedule: Q01DX010 (ip), vehicle: saline): 115 % of control and 118 % of control
- T/C (dose: 50.0 mg/kg/injection, schedule: Q04DX003 (ip), vehicle: other): 121 % of control
- T/C (dose: 60.0 mg/kg/injection, schedule: Q01DX009 (ip), vehicle: Klucel (hydroxypropylcellulose) (HPC)): 90 % of control
- T/C (dose: 60.0 mg/kg/injection, schedule: Q01DX010 (ip), vehicle: saline): 168 % of control
- T/C (dose: 60.0 mg/kg/injection, schedule: Q04DX003 (ip), vehicle: Klucel (hydroxypropylcellulose) (HPC)): 118 % of control
- T/C (dose: 64.8 mg/kg/injection, schedule: Q01DX001 (sc), vehicle: Klucel (hydroxypropylcellulose) (HPC)): 108 % of control
- T/C (dose: 64.8 mg/kg/injection, schedule: Q04DX003 (ip), vehicle: Klucel (hydroxypropylcellulose) (HPC)): 119 % of control
- T/C (dose: 64.8 mg/kg/injection, schedule: Q04DX003 (sc), vehicle: Klucel (hydroxypropylcellulose) (HPC)): 107 % of control
- T/C (dose: 100.0 mg/kg/injection, schedule: Q04DX003 (ip), vehicle: other): 178 % of control
- T/C (dose: 108.0 mg/kg/injection, schedule: Q01DX001 (ip), vehicle: Klucel (hydroxypropylcellulose) (HPC)): 109 % of control
- T/C (dose: 108.0 mg/kg/injection, schedule: Q01DX001 (sc), vehicle: Klucel (hydroxypropylcellulose) (HPC)): 110 % of control
- T/C (dose: 108.0 mg/kg/injection, schedule: Q04DX003 (ip), vehicle: Klucel (hydroxypropylcellulose) (HPC)): 118 % of control
- T/C (dose: 108.0 mg/kg/injection, schedule: Q04DX003 (sc), vehicle: Klucel (hydroxypropylcellulose) (HPC)): 96 % of control
- T/C (dose: 120.0 mg/kg/injection, schedule: Q04DX003 (ip), vehicle: Klucel (hydroxypropylcellulose) (HPC)): 90 % of control
- T/C (dose: 180.0 mg/kg/injection, schedule: Q01DX001 (ip), vehicle: Klucel (hydroxypropylcellulose) (HPC)): 108 % of control
- T/C (dose: 180.0 mg/kg/injection, schedule: Q01DX001 (sc), vehicle: Klucel (hydroxypropylcellulose) (HPC)): 116 % of control
- T/C (dose: 180.0 mg/kg/injection, schedule: Q04DX003 (ip), vehicle: Klucel (hydroxypropylcellulose) (HPC)): 98 % of control
- T/C (dose: 200.0 mg/kg/injection, schedule: Q04DX003 (ip), vehicle: other): 97 % of control
- T/C (dose: 300.0 mg/kg/injection, schedule: Q01DX001 (ip), vehicle: Klucel (hydroxypropylcellulose) (HPC)): 114 % of control
- T/C (dose: 300.0 mg/kg/injection, schedule: Q01DX001 (sc), vehicle: Klucel (hydroxypropylcellulose) (HPC)): 118 % of control

Structure (SMILES): C=CC12COC(=O)C(=C)C1C(O)C(C(=C)C(=O)OC)C(O)C2 (configuration not stated)
- T/C (dose: 0.5 mg/kg/injection, schedule: Q01DX010 (ip), vehicle: steriod suspending solution): 100 % of control
- T/C (dose: 1.0 mg/kg/injection, schedule: Q01DX010 (ip), vehicle: steriod suspending solution): 109 % of control
- T/C (dose: 2.0 mg/kg/injection, schedule: Q01DX010 (ip), vehicle: steriod suspending solution): 100 % of control
- T/C (dose: 4.0 mg/kg/injection, schedule: Q01DX010 (ip), vehicle: steriod suspending solution): 122 % of control
- T/C (dose: 10.0 mg/kg/injection, schedule: Q01DX010 (ip), vehicle: steriod suspending solution): 109 % of control

Structure (SMILES): COc1cc[n+]([O-])cc1/C=C/c1c[n+]([O-])ccc1OC
- T/C (dose: 25.0 mg/kg/injection, schedule: Q04DX003 (ip), vehicle: saline with Tween-80): 94 % of control
- T/C [13]: 119 % of control
- T/C [8]: 103 % of control
- T/C [10]: 108 % of control

Structure (SMILES): C[C@@H]1CN(C(=O)CCOS(C)(=O)=O)[C@@H](C)CN1C(=O)CCOS(C)(=O)=O
- T/C [13]: 166 % of control
- T/C [7]: 272 % of control
- T/C [8]: 208 % of control
- T/C [9]: 104 % of control
- T/C [10]: 172 % of control
- T/C (dose: 264.0 mg/kg/injection, schedule: Q04DX003 (ip), vehicle: saline with Tween-80): 233 % of control
- T/C [11]: 250 % of control and 272 % of control

Structure (SMILES): Cc1c(CO)[nH]c(=S)[nH]c1=O
- T/C (dose: 100.0 mg/kg/injection, schedule: Q01DX001 (ip), vehicle: Klucel (hydroxypropylcellulose) (HPC)): 90 % of control
- T/C (dose: 200.0 mg/kg/injection, schedule: Q01DX001 (ip), vehicle: Klucel (hydroxypropylcellulose) (HPC)): 104 % of control
- T/C (dose: 400.0 mg/kg/injection, schedule: Q01DX001 (ip), vehicle: Klucel (hydroxypropylcellulose) (HPC)): 95 % of control
